# Source: patent publication US8916498B2, “Safening 6-(trisubstituted phenyl)-4-amino-2-pyridinecarboxylate herbicide injury on direct seeded and transplanted paddy rice” (priority 2008, dated 2014)
# Values joined by “and” are separate entries in the source; they are usually repeats but may differ in a detail not shown here. Equal values may be shown once. Read-outs that look alike come from different tables or passages of the source.
# Key:
# SEBEX = test: Postemergence herbicidal safening in direct seeded rice, visual injury on weed; type: in vivo; details: alone, after 3 weeks
# weed test plant species = test: Herbicidal safening in transplanted paddy rice, visual injury on weeds; type: in vivo; details: after 3 weeks; for Visual Injury (%) CYPDI Obs: Cyperus difformis; for Visual Injury (%) MOOVA Obs: Monochoria vaginalis; for Visual Injury (%) SCPJU Obs: Scirpus juncoides
# Procedure: (§1) Evaluation of Herbicidal Safening in Transplanted Paddy Rice
# (§2) The prepared mud was dispensed in 250 mL aliquots into 480 mL non-perforated plastic pots with a surface area of 91.6 cm^2 leaving a headspace of 3 cm in each pot. Rice seeds were planted in Sun Gro MetroMix 306 planting mixture, which typically has a pH of 6.0 to 6.8 and an organic matter content of about 30 percent, in plastic plug trays. Seedlings at the second or third leaf stage of growth were transplanted into 650 mL of mud contained in 960 mL non-perforated plastic pots with a surface area of 91.6 cm^2 four days prior to herbicide application. The paddy was created by filling the 3 cm headspace of the pots with water. […] Nutrients were added as Osmocote (17:6:10, Nitrogen:Phosphorus:Potassium (N:P:K)+minor nutrients) at 2 grams (g) per cup.
# (§3) For technical grade compounds and safeners, a weighed amount, determined by the highest rate to be tested, was placed in an individual 120 mL glass vial and was dissolved in 20 mL of acetone to obtain concentrated stock solutions. […] The concentrated stock solutions obtained were diluted with 20 mL of acetone. Applications were made by injecting an appropriate amount of the stock solution into the aqueous layer of the paddy. […] All treated plant material received the same concentration of acetone and crop oil concentrate.
# ECHCO = test: Postemergence herbicidal safening in direct seeded rice, visual injury on weed; type: in vivo; details: alone, after 3 weeks
# CYPDI = test: as above; type: in vivo; details: alone, after 3 weeks
# ORYSA (rice) = test: Postemergence herbicidal safening in direct seeded rice, visual injury; details: for Visual Injury (%) ‘Lemont’ ORYSA Obs / ORYSA Visual Injury (%) ‘Cheniere’ Obs / ORYSA Visual Injury (%) ‘Clearfield’ Obs / ORYSA Visual Injury (%) ‘Cocodrie’ Obs / ORYSA Visual Injury (%) ‘Lemont’ Obs / ORYSA Visual Injury (%) ‘M202’ Obs / ORYSA Visual Injury (%) ‘Wells’ Obs: alone; for ORYSA Visual Injury (%) ‘Cheniere’ Obs / ORYSA Visual Injury (%) ‘Clearfield’ Obs / ORYSA Visual Injury (%) ‘Cocodrie’ Obs / ORYSA Visual Injury (%) ‘Lemont’ Obs / ORYSA Visual Injury (%) ‘M202’ Obs / ORYSA Visual Injury (%) ‘Wells’ Obs: after 3 weeks (Table 14)
# From the text: A=observed efficacy of active ingredient A at the same concentration as used in the mixture.
# B=observed efficacy of active ingredient B at the same concentration as used in the mixture.
# transplanted paddy rice [1] = test: Safening activity of herbicide mixtures in transplanted paddy rice; type: in vivo, Oryza sativa
# Procedure: as §2, §3
# Forms of compound 1 were applied on an acid equivalent basis.
# transplanted paddy rice [2] = test: Herbicidal safening in transplanted paddy rice, visual injury; type: in vivo, Oryza sativa; details: after 3 weeks
# Procedure: as §1, §2, §3
smiles,measurement,setting,value
COc1cc(OC)nc(Oc2cccc(Oc3nc(OC)cc(OC)n3)c2C(=O)O)n1 [Bispyribac sodium],ORYSA Visual Injury (%) ‘M202’ Obs,direct seeded rice; partner 28 g/ha alone,15%
same,ORYSA Visual Injury (%) ‘Wells’ Obs,direct seeded rice; partner 28 g/ha alone,20%
CCOC(=O)C(Cl)Cc1cc(-n2nc(C)n(C(F)F)c2=O)c(F)cc1Cl (stereo not drawn) [Carfentrazone-ethyl],ORYSA Visual Injury (%) ‘M202’ Obs,direct seeded rice; partner 56 g/ha alone,20%
same,ORYSA Visual Injury (%) ‘Wells’ Obs,direct seeded rice; partner 56 g/ha alone,25%
same,ORYSA Visual Injury (%) ‘M202’ Obs,direct seeded rice; partner 112 g/ha alone,20%
same,ORYSA Visual Injury (%) ‘Wells’ Obs,direct seeded rice; partner 112 g/ha alone,35%
CCCCCC(C)OC(=O)COc1ccc(Cl)c2cccnc12 (stereo not drawn) [Cloquintocet-mexyl],Visual Injury (%) SEBEX Obs,SEBEX; 35 g ai/ha,0%
same,Visual Injury (%) SEBEX Obs,SEBEX; 70 g ai/ha,0%
same,Visual Injury (%) SEBEX Obs,SEBEX; 140 g ai/ha,0%
same,Visual Injury (%) SEBEX Obs,SEBEX; 280 g ae/ha,0%
same,Visual Injury (%) SEBEX Obs,SEBEX; 280 g ai/ha,0%
same,Visual Injury (%) CYPDI Obs,weed test plant species; safener 70 g ai/ha alone,0%
same,Visual Injury (%) CYPDI Obs,weed test plant species; safener 140 g ai/ha alone,0%
same,Visual Injury (%) CYPDI Obs,weed test plant species; safener 280 g ai/ha alone,0%
same,Visual Injury (%) MOOVA Obs,weed test plant species; safener 70 g ai/ha alone,0%
same,Visual Injury (%) MOOVA Obs,weed test plant species; safener 140 g ai/ha alone,0%
same,Visual Injury (%) MOOVA Obs,weed test plant species; safener 280 g ai/ha alone,0%
same,Visual Injury (%) ECHCO Obs,ECHCO; 35 g ai/ha,0%
same,Visual Injury (%) ECHCO Obs,ECHCO; 70 g ai/ha,0%
same,Visual Injury (%) ECHCO Obs,ECHCO; 140 g ai/ha,0%
same,Visual Injury (%) ECHCO Obs,ECHCO; 280 g ae/ha,0%
same,Visual Injury (%) ECHCO Obs,ECHCO; 280 g ai/ha,0%
same,Visual Injury (%) CYPDI Obs,CYPDI; 35 g ai/ha,0%
same,Visual Injury (%) CYPDI Obs,CYPDI; 70 g ai/ha,0%
same,Visual Injury (%) CYPDI Obs,CYPDI; 140 g ai/ha,0%
same,Visual Injury (%) CYPDI Obs,CYPDI; 280 g ae/ha,0%
same,Visual Injury (%) CYPDI Obs,CYPDI; 280 g ai/ha,0%
same,‘M202’ ORYSA Visual Injury (%) Obs,"ORYSA (rice); Safener Alone, 560 g ai/ha, after 3 weeks",3.3%
same,Visual Injury (%) ‘Lemont’ ORYSA Obs,"ORYSA (rice); 35 g ai/ha, after 3 weeks",0%
same,Visual Injury (%) ‘Lemont’ ORYSA Obs,"ORYSA (rice); 70 g ai/ha, after 3 weeks",0%
same,Visual Injury (%) ‘Lemont’ ORYSA Obs,"ORYSA (rice); 140 g ai/ha, after 3 weeks",0%
same,ORYSA Visual Injury (%) ‘Cheniere’ Obs,ORYSA (rice); 140 g ai/ha,0%
same,ORYSA Visual Injury (%) ‘Clearfield’ Obs,ORYSA (rice); 140 g ai/ha,0%
same,ORYSA Visual Injury (%) ‘Cocodrie’ Obs,ORYSA (rice); 140 g ai/ha,0%
same,ORYSA Visual Injury (%) ‘Lemont’ Obs,ORYSA (rice); 140 g ai/ha,0%
same,ORYSA Visual Injury (%) ‘M202’ Obs,ORYSA (rice); 140 g ai/ha,0%
same,ORYSA Visual Injury (%) ‘Wells’ Obs,ORYSA (rice); 140 g ai/ha,0%
same,Visual Injury (%) ‘Lemont’ ORYSA Obs,"ORYSA (rice); 280 g ae/ha, after 3 weeks",0%
same,Visual Injury (%) ‘Lemont’ ORYSA Obs,"ORYSA (rice); 280 g ai/ha, after 3 weeks",0%
same,ORYSA Visual Injury (%) ‘Cheniere’ Obs,ORYSA (rice); 280 g ai/ha,0%
same,ORYSA Visual Injury (%) ‘Clearfield’ Obs,ORYSA (rice); 280 g ai/ha,0%
same,ORYSA Visual Injury (%) ‘Cocodrie’ Obs,ORYSA (rice); 280 g ai/ha,0%
same,ORYSA Visual Injury (%) ‘Lemont’ Obs,ORYSA (rice); 280 g ai/ha,0%
same,ORYSA Visual Injury (%) ‘M202’ Obs,ORYSA (rice); 280 g ai/ha,0%
same,ORYSA Visual Injury (%) ‘Wells’ Obs,ORYSA (rice); 280 g ai/ha,0%
COc1c(Cl)ccc(-c2cc(N)c(Cl)c(C(=O)[O-])n2)c1F.[Na+] [Compound 1 Na + salt],Visual Injury (%) SEBEX Obs,SEBEX; 70 g ai/ha,100%
same,Visual Injury (%) CYPDI Obs,weed test plant species; herbicide 70 g ai/ha alone,100%
same,Visual Injury (%) MOOVA Obs,weed test plant species; herbicide 70 g ai/ha alone,100%
same,Visual Injury (%) ECHCO Obs,ECHCO; 70 g ai/ha,95%
same,Visual Injury (%) CYPDI Obs,CYPDI; 70 g ai/ha,95%
same,Visual Injury (%) ‘Lemont’ ORYSA Obs,"ORYSA (rice); 70 g ai/ha, after 3 weeks",50%
CCN(CC)CC.COc1c(Cl)ccc(-c2cc(N)c(Cl)c(C(=O)O)n2)c1F [Compound 1 TEA Salt],Visual Injury (%) ‘M202’ ORYSA Obs,transplanted paddy rice [1]; compound 35 g/ha alone,20%
same,Visual Injury (%) ‘M202’ ORYSA Obs,transplanted paddy rice [1]; compound 70 g/ha alone,35% and 50%
same,Visual Injury (%) SCPJU Obs,weed test plant species; herbicide 70 g ae/ha alone,100%
same,Visual Injury (%) SCPJU Obs,weed test plant species; herbicide 140 g ae/ha alone,100%
same,Visual Injury (%) ECHCG Obs,weed test plant species; herbicide 70 g ae/ha alone,99%
same,Visual Injury (%) ECHCG Obs,weed test plant species; herbicide 140 g ae/ha alone,100%
same,Visual Injury (%) ‘M202’ ORYSA Obs,transplanted paddy rice [2]; herbicide 70 g ae/ha alone,65%
same,‘M202’ ORYSA Visual Injury (%) Obs,transplanted paddy rice [2]; herbicide 70 g ae/ha alone,60%
same,Visual Injury (%) ‘M202’ ORYSA Obs,transplanted paddy rice [2]; herbicide 140 g ae/ha alone,70%
same,‘M202’ ORYSA Visual Injury (%) Obs,transplanted paddy rice [2]; herbicide 140 g ae/ha alone,85%
COc1c(Cl)ccc(-c2cc(N)c(Cl)c(C(=O)[O-])n2)c1Cl.[Na+] [Compound 2 Na + salt],Visual Injury (%) SEBEX Obs,SEBEX; 70 g ai/ha,100%
same,Visual Injury (%) CYPDI Obs,weed test plant species; herbicide 70 g ai/ha alone,100%
same,Visual Injury (%) MOOVA Obs,weed test plant species; herbicide 70 g ai/ha alone,100%
same,Visual Injury (%) ECHCO Obs,ECHCO; 70 g ai/ha,90%
same,Visual Injury (%) CYPDI Obs,CYPDI; 70 g ai/ha,100%
same,Visual Injury (%) ‘Lemont’ ORYSA Obs,"ORYSA (rice); 70 g ai/ha, after 3 weeks",15%
CCCCOC(=O)[C@@H](C)Oc1ccc(Oc2ccc(C#N)cc2F)cc1 [Cyhalofop-butyl],Visual Injury (%) ‘M202’ ORYSA Obs,transplanted paddy rice [1]; partner 90 g/ha alone,0%
same,Visual Injury (%) ‘M202’ ORYSA Obs,transplanted paddy rice [1]; partner 180 g/ha alone,0%
